Patent publication US11155558B2, “Dual mode of action soluble guanylate cyclase activators and phosphodiesterase inhibitors and uses thereof” (TOPADUR PHARMA AG, priority 2017, dated 2021)

What was measured:
[1] = molecular target: recombinant human (rh) PDE5A (Homo sapiens (Human), UniProt O76074); experiment: Phosphodiesterase-5 activity assay (Example 110), radiometric SPA; format: biochemical
Protocol: The inhibition of recombinant human (rh) PDE5A by test compounds is measured in a radiometric assay based on Scintillation Proximity Assay (SPA) technology. The substrate [3H]cGMP/cGMP is hydrolysed to [3H] 5′ GMP/5′ GMP contingent on the activity of rhPDE5A. The ensuing [3H] 5′ GMP/5′ GMP but not [3H] cGMP/cGMP binds to SPA yttrium silicate beads in the presence of Zn^++ stimulating the scintillant within the bead to emit light that is detected by a ß-counter. The assay is performed in a 96 well format.
The assay is done in 20 mM Tris HCl pH 7.4, 5 mM MgCl2, […] cGMP/[3H] cGMP (about 60000 dpm/well) substrate with rhPDE5A1 (GST tagged, SIGMA E9034) added to an amount not exceeding 20% cGMP hydrolysis within 20 min in Tris 20 mM pH 7.4 supplemented with 0.01% bovine serum albumin (BSA) in the presence of test compounds or vehicle (0.1% DMSO). The final assay volume amounts to 100 μl and the reaction is run for 20 min at 37° C.
The hydrolysis of [3H] cGMP/cGMP by rhPDE5A is terminated by adding SPA beads at 50 µl/well (Perkin Elmer, RPNQ0024), pre-diluted in water as per manufacturer's instructions and supplemented with 3-isobutyl-1-methylxanthine (1 mM). Beads are allowed to sediment for at least 30 min before measurement in a Wallac Microbeta 2 (Perkin Elmer).
In general, test compounds are added at seven different concentrations from […] in log steps. […] Results (IC50) are given as the mean from at least two independent experiments each performed in triplicate.

[2] = Measurements of human plasma protein binding; format: in vitro ADME; conditions: for recovery: human
Protocol: An aliquot of 200 μL of human plasma containing test compound was spiked into donor well (red chamber) of the insert. 350 μL of PBS was spiked into receiver well (white chamber) of the insert.
The samples were matrix equilibrated with opposite matrix (25 μL of plasma/buffer sample was matched with 25 μL of blank buffer/plasma). Matrix matched samples were precipitated with 200 μL of acetonitrile containing internal standard. Samples were vortexed at 1000 rpm for 5 min and centrifuged at 4000 rpm for 10 min. Supernatant was separated, diluted 2 fold with water and analysed in LC-MS/MS. TO control samples were processed immediately after the preparation of plasma working stock solutions. These samples serves as a measure for calculating the percentage recovery of test compounds.

[3] = molecular target: PDE5 enzyme isolated from human platelets (Homo sapiens (Human), UniProt O76074); experiment: PDE5 assay (Example 109), formation of 5′GMP from cGMP, SPA; conditions: for % inhibition at 5.0E−09 M: percent inhibition of control enzyme activity at 5.0E−09 M, assay of Example 109;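 for all read-outs here: tritiated 5′GMP counted by scintillation after SPA bead capture, enzyme reaction run 60 min at 22 °C, basal control is the mixture without enzyme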
Protocol: Evaluation of the effects of compounds of the present invention on the activity of the human phosphodiesterase-5 quantified by measuring the formation of 5′GMP from cGMP using PDE5 enzyme isolated from human platelets.
Thereafter, the reaction is initiated by addition of the enzyme and the mixture is incubated for 60 min at 22° C.
For basal control measurements, the enzyme is omitted from the reaction mixture. Following incubation SPA beads are added. After 20 min at 22° C. under shaking, the amount of [3H]5′GMP is quantified with a scintillation counter (Topcount, Packard).
The standard inhibitory reference compound is dipyridamole, which is tested in each experiment at several concentrations to obtain an inhibition curve from which its IC50 value is calculated.

SMILES | IC50 [3] [nM] | % inhibition at 5.0E−09 M [3] [%] | further results
CCCOc1ccc(S(=O)(=O)N2CCC([C@@H](CO[N+](=O)[O-])O[N+](=O)[O-])CC2)cc1-c1nc2c(CCC)c(/C=N/O)n(C)c2c(=O)[nH]1 [Compound 3p, (S,E)-1-(1-((3-(6-((hydroxyimino)methyl)-5-methyl-4-oxo-7-propyl-4,5-dihydro-3H-pyrrolo[3,2-d]pyrimidin-2-yl)-4-propoxyphenyl)sulfonyl)piperidin-4-yl)ethane-1,2-diyl dinitrate] | – | – | IC50 [1]: 12 nM
CCCc1cn(C)c2c(=O)[nH]c(-c3cc(S(=O)(=O)N4CCC(CCO[N+](=O)[O-])CC4)ccc3OCC)nc12 [Compound 2c, 2-(1-((4-ethoxy-3-(5-methyl-4-oxo-7-propyl-4,5-dihydro-3H-pyrrolo[3,2-d]pyrimidin-2-yl)phenyl)sulfonyl)piperidin-4-yl)ethyl nitrate] | – | – | % Bound in Plasma [2]: 99.65%; fraction unbound [2]: 0.0035; recovery [2]: 105%
CCCc1c(/C=N/O)n(C)c2c(=O)[nH]c(-c3cc(S(=O)(=O)N4CCC(CCO[N+](=O)[O-])CC4)ccc3OCC)nc12 [Compound 2a, (E)-2-(1-((4-ethoxy-3-(6-((hydroxyimino)methyl)-5-methyl-4-oxo-7-propyl-4,5-dihydro-3H-pyrrolo[3,2-d]pyrimidin-2-yl)phenyl)sulfonyl)piperidin-4-yl)ethyl nitrate] | 2 | 13.4 | –
CCCc1cn(C)c2c(=O)[nH]c(-c3cc(S(=O)(=O)N4CCN(CCCO[N+](=O)[O-])CC4)ccc3OCC)nc12 [Compound 2b, 3-(4-((4-ethoxy-3-(5-methyl-4-oxo-7-propyl-4,5-dihydro-3H-pyrrolo[3,2-d]pyrimidin-2-yl)phenyl)sulfonyl)piperazin-1-yl)propyl nitrate] | 2 | 18.2 | –
CCCOc1ccc(S(=O)(=O)N2CCC(CCO)CC2)cc1-c1nc2c(CCC)cn(C)c2c(=O)[nH]1 [Compound 29, 2-(5-((4-(2-hydroxyethyl)piperidin-1-yl)sulfonyl)-2-propoxyphenyl)-5-methyl-7-propyl-3,5-dihydro-4H-pyrrolo[3,2-d]pyrimidin-4-one] | – | 46.4 | –
CCCc1nn(C)c2c(=O)[nH]c(-c3cc(S(=O)(=O)N4CCN(C)CC4)ccc3OCC)nc12 [sildenafil, reference compound] | – | – | % Bound in Plasma [2]: 96.41%; fraction unbound [2]: 0.0359; recovery [2]: 104%
CCCOc1ccc(S(=O)(=O)N2CCN(CCO)CC2)cc1-c1nc2c(CCC)cn(C)c2c(=O)[nH]1 [Compound 32, 2-(5-((4-(2-hydroxyethyl)piperazin-1-yl)sulfonyl)-2-propoxyphenyl)-5-methyl-7-propyl-3,5-dihydro-4H-pyrrolo[3,2-d]pyrimidin-4-one] | – | 53.4 | –
CCCOc1ccc(S(=O)(=O)N2CCC(CCO)CC2)cc1-c1nc2c(CCC)c(CO)n(CC)c2c(=O)[nH]1 [Compound 6, 5-ethyl-2-(5-((4-(2-hydroxyethyl)piperidin-1-yl)sulfonyl)-2-propoxyphenyl)-6-(hydroxymethyl)-7-propyl-3,5-dihydro-4H-pyrrolo[3,2-d]pyrimidin-4-one] | 2.4 | – | –
CCCOc1ccc(S(=O)(=O)N2CCN(CCO[N+](=O)[O-])CC2)cc1-c1nc2c(CCC)c(/C=N/O)n(CC)c2c(=O)[nH]1 [Compound 1a, (E)-2-(4-((3-(5-ethyl-6-((hydroxyimino)methyl)-4-oxo-7-propyl-4,5-dihydro-3H-pyrrolo[3,2-d]pyrimidin-2-yl)-4-propoxyphenyl)sulfonyl)piperazin-1-yl)ethyl nitrate] | 12 | 20.7 | –
CCCc1cn(C)c2c(=O)[nH]c(-c3cc(S(=O)(=O)N4CCN(CCO)CC4)ccc3OCC)nc12 [Compound 20, 2-(2-ethoxy-5-((4-(2-hydroxyethyl)piperazin-1-yl)sulfonyl)phenyl)-5-methyl-7-propyl-3,5-dihydro-4H-pyrrolo[3,2-d]pyrimidin-4-one] | – | 41.1 | –
CCCOc1ccc(S(=O)(=O)N2CCC(CCO[N+](=O)[O-])CC2)cc1-c1nc2c(CCC)cn(C)c2c(=O)[nH]1 [Compound 3a, 2-(1-((3-(5-methyl-4-oxo-7-propyl-4,5-dihydro-3H-pyrrolo[3,2-d]pyrimidin-2-yl)-4-propoxyphenyl)sulfonyl)piperidin-4-yl)ethyl nitrate] | – | 6.5 | –
CCCc1cn(C)c2c(=O)[nH]c(-c3cc(S(=O)(=O)N4CCN(CCO[N+](=O)[O-])CC4)ccc3OCC)nc12 [Compound 2d, 2-(4-((4-ethoxy-3-(5-methyl-4-oxo-7-propyl-4,5-dihydro-3H-pyrrolo[3,2-d]pyrimidin-2-yl)phenyl)sulfonyl)piperazin-1-yl)ethyl nitrate] | 1.2 | 57.8 | –
CCCc1c(/C=N/O)n(C)c2c(=O)[nH]c(-c3cc(S(=O)(=O)N4CCC(CCO)CC4)ccc3OCC)nc12 [Compound 17, (E)-2-(2-ethoxy-5-((4-(2-hydroxyethyl)piperidin-1-yl)sulfonyl)phenyl)-5-methyl-4-oxo-7-propyl-4,5-dihydro-3H-pyrrolo[3,2-d]pyrimidine-6-carbaldehyde oxime] | – | 33.2 | –
CCCOc1ccc(S(=O)(=O)N2CCC(CCO)CC2)cc1-c1nc2c(CCC)cn(CC)c2c(=O)[nH]1 [Compound 5, 5-ethyl-2-(5-((4-(2-hydroxyethyl)piperidin-1-yl)sulfonyl)-2-propoxyphenyl)-7-propyl-3,5-dihydro-4H-pyrrolo[3,2-d]pyrimidin-4-one] | 0.29 | 74.4 | PDE5 inhibition (in words) ([3]; human cGMP-specific PDE5, refers to Table 1): much more potent PDE5 inhibitor; % Bound in Plasma [2]: 99.87%; fraction unbound [2]: 0.0013; recovery [2]: 102%
CCCOc1ccc(S(=O)(=O)N2CCC(CCCO)CC2)cc1-c1nc2c(CCC)cn(CC)c2c(=O)[nH]1 [Compound 15, 5-ethyl-2-(5-((4-(3-hydroxypropyl)piperidin-1-yl)sulfonyl)-2-propoxyphenyl)-7-propyl-3,5-dihydro-4H-pyrrolo[3,2-d]pyrimidin-4-one] | 1.8 | 50.3 | –
CCCOc1ccc(S(=O)(=O)N2CCN(CCO)CC2)cc1-c1nc2c(CCC)cn(CC)c2c(=O)[nH]1 [mirodenafil, 5-ethyl-2-(5-((4-(2-hydroxyethyl)piperazin-1-yl)sulfonyl)-2-propoxyphenyl)-7-propyl-3,5-dihydro-4H-pyrrolo[3,2-d]pyrimidin-4-one, reference compound] | 0.34 | 64.9 | % Bound in Plasma [2]: 98.94%; fraction unbound [2]: 0.0106; recovery [2]: 99.2%
CCCc1cn(C)c2c(=O)[nH]c(-c3cc(S(=O)(=O)N4CCN(CCCO)CC4)ccc3OCC)nc12 [Compound 23, 2-(2-ethoxy-5-((4-(3-hydroxypropyl)piperazin-1-yl)sulfonyl)phenyl)-5-methyl-7-propyl-3,5-dihydro-4H-pyrrolo[3,2-d]pyrimidin-4-one] | – | 36.7 | –
CCCOc1ccc(S(=O)(=O)N2CCC(CCCO[N+](=O)[O-])CC2)cc1-c1nc2c(CCC)cn(CC)c2c(=O)[nH]1 [Compound 1d, 3-(1-((3-(5-ethyl-4-oxo-7-propyl-4,5-dihydro-3H-pyrrolo[3,2-d]pyrimidin-2-yl)-4-propoxyphenyl)sulfonyl)piperidin-4-yl)propyl nitrate] | > 10 | 13.4 | –
CCCOc1ccc(S(=O)(=O)N2CCC(CCO)CC2)cc1-c1nc2c(CCC)c(/C=N/O)n(CC)c2c(=O)[nH]1 [Compound 8, (E)-5-ethyl-2-(5-((4-(2-hydroxyethyl)piperidin-1-yl)sulfonyl)-2-propoxyphenyl)-4-oxo-7-propyl-4,5-dihydro-3H-pyrrolo[3,2-d]pyrimidine-6-carbaldehyde oxime] | 2.7 | 71.2 | –
CC(=O)CC(c1ccccc1)c1c(O)c2ccccc2oc1=O (stereo not shown) [Warfarin, reference compound] | – | – | % Bound in Plasma [2]: 97.28%; fraction unbound [2]: 0.0272; recovery [2]: 101%
CCCc1cn(C)c2c(=O)[nH]c(-c3cc(S(=O)(=O)N4CCC(CCO)CC4)ccc3OCC)nc12 [Compound 14, 2-(2-ethoxy-5-((4-(2-hydroxyethyl)piperidin-1-yl)sulfonyl)phenyl)-5-methyl-7-propyl-3,5-dihydro-4H-pyrrolo[3,2-d]pyrimidin-4-one] | 0.3 | – | % Bound in Plasma [2]: 99.43%; fraction unbound [2]: 0.0057; recovery [2]: 98.9%
